Read-outs that look alike come from different tables or passages of the source.
Tests used:
[1] = Slurry experiment, form conversion by XRPD; type: physicochemical; conditions: slurried in ethanol for 21 days
Method: Solutions were prepared by adding enough solids to a given solvent so that excess solids were present. The mixture was then agitated in a sealed vial at either ambient or a set temperature.

[2] = Physical stability, stress experiments (temperature/RH) with XRPD; type: physicochemical; conditions: for Physical stability (overall finding): at the conditions investigated, HCl salt
[3] = Dynamic vapor sorption/desorption (DVS); type: physicochemical; conditions: for Solid form after DVS, by XRPD: after sorption/desorption; for DVS weight loss upon equilibration: equilibration at 5% RH
Source text: Moisture sorption/desorption data were collected on a VTI SGA-100 Vapor Sorption Analyzer under a nitrogen purge. […] Data were not corrected for the initial moisture content of the samples. Sodium chloride and polyvinypyrrolidine were used as calibration standards.

physchem = conditions: water, thermodynamic from solid

Cl.FC(F)(F)c1ccc(CNc2ccc(Cc3c[nH]c4ncc(Cl)cc34)cn2)cn1 [Compound I Form A, [5-(5-chloro-1H-pyrrolo[2,3-b]pyridin-3-ylmethyl)-pyridin-2-yl]-(6-trifluoromethyl-pyridin-3-ylmethyl)-amine HCl salt]
Form conversion on slurry [1]: complete conversion to Form C | XRPD Result (solid form after stress) ([2]; 40° C./75% RH/14 d): A + C | XRPD Result (solid form after stress) ([2]; 80° C./7 d (<<100 mg)): converted to Form C | XRPD Result (solid form after stress) ([2]; RT/85% RH/14 d): A + minor C | Physical stability (overall finding) ([2]; listed as Form A): physically metastable | Form conversion on exposure to elevated humidity ([2]; elevated humidity): partial conversion to Form C | DVS additional weight gain, sorption step ([3]; above 75% RH): 1.7% | Solid form after DVS, by XRPD ([3]; listed as Form A, HCl salt): Form A | DVS weight gain, sorption step ([3]; from 5% to 75% RH): 0.6% | Hygroscopicity (DVS isotherm) ([3]; listed as Form A, HCl salt): hygroscopic | solubility (physchem): < 2000 µg/mL

Cl.FC(F)(F)c1ccc(CNc2ccc(Cc3c[nH]c4ncc(Cl)cc34)cn2)cn1 [Compound I Form B, [5-(5-chloro-1H-pyrrolo[2,3-b]pyridin-3-ylmethyl)-pyridin-2-yl]-(6-trifluoromethyl-pyridin-3-ylmethyl)-amine HCl salt]
Form conversion on heating ([2]; about 150° C. for about 5 minutes): Desolvation/conversion to Form C

Cl.FC(F)(F)c1ccc(CNc2ccc(Cc3c[nH]c4ncc(Cl)cc34)cn2)cn1 [Compound I Form C, [5-(5-chloro-1H-pyrrolo[2,3-b]pyridin-3-ylmethyl)-pyridin-2-yl]-(6-trifluoromethyl-pyridin-3-ylmethyl)-amine HCl salt]
Physical stability (overall finding) ([2]; listed as Form C): more physically stable than Form A | Solid form after DVS, by XRPD ([3]; listed as Form C, HCl salt): remained unchanged | DVS weight gain, sorption step ([3]; from 5% to 95% RH): 0.96% | Hygroscopicity (DVS isotherm) ([3]; listed as Form C, HCl salt): less hygroscopic than Form A

CO.Cl.FC(F)(F)c1ccc(CNc2ccc(Cc3c[nH]c4ncc(Cl)cc34)cn2)cn1 [Compound I Form D, [5-(5-chloro-1H-pyrrolo[2,3-b]pyridin-3-ylmethyl)-pyridin-2-yl]-(6-trifluoromethyl-pyridin-3-ylmethyl)-amine HCl salt methanol solvate]
Form conversion on heating ([2]; 80° C. for 15 minutes): desolvated to Form A | Form conversion on heating ([2]; continued exposure to 80° C. for 2 days): converted to Form C | DVS weight loss, desorption phase ([3]; desorption phase): 0.9% | DVS weight loss upon equilibration [3]: approximately 5.3% | DVS weight gain, sorption phase ([3]; sorption phase): 0.9%

FC(F)(F)c1ccc(CNc2ccc(Cc3c[nH]c4ncc(Cl)cc34)cn2)cn1 [Compound II, [5-(5-chloro-1H-pyrrolo[2,3-b]pyridin-3-ylmethyl)-pyridin-2-yl]-(6-trifluoromethyl-pyridin-3-ylmethyl)-amine]
Hygroscopicity (DVS isotherm) [3]: hygroscopic | DVS weight loss upon equilibration [3]: 0.3-0.4% | DVS weight gained ([3]; from 45% to 95% RH): ~21.6%

Source: patent US10584122B2, “Solid forms of a compound modulating kinases” (Plexxikon Inc., priority 2015, dated 2020)
